# Laboratory results from patent publication US9302999B2, “Substituted triazoles as herbicides” (E. I. DU PONT DE NEMOURS AND COMPANY, priority 2012, dated 2016).
# What was measured:
# Type in all cases: in vivo
# [1] = tested on: barnyardgrass (Echinochloa crus-galli); test: Test A pre-/postemergence: barnyardgrass; settings: for Barnyardgrass plant response rating: Postemergence; for Plant response rating, Barnyardgrass: Preemergence
# Summary of the method: (§1)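 Injury is scored visually on a scale where 0 means no effect and 100 complete control, comparing treated with untreated plants after approximately ten greenhouse days. Both preemergence and postemergence applications are made at the same time.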
# [2] = tested on: pigweed (Amaranthus retroflexus); test: Test A pre-/postemergence: pigweed
# Summary of the method: as §1
# corn (Zea mays) = test: Test A pre-/postemergence: corn; settings: for Corn plant response rating: Postemergence; for Plant response rating, Corn: Preemergence
# Summary of the method: as §1
# [3] = tested on: morningglory (Ipomoea spp.); test: Test A pre-/postemergence: morningglory
# Summary of the method: as §1
# [4] = tested on: velvetleaf (Abutilon theophrasti); test: Test A pre-/postemergence: velvetleaf
# Summary of the method: as §1
# [5] = tested on: sedge, umbrella (small-flower umbrella sedge Cyperus difformis); test: Test B flooded paddy: sedge, umbrella; settings: Flood; 250 g ai/ha; applied to paddy water at 2-leaf stage; visually evaluated after 13 to 15 days
# Summary of the method: (§2)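 Greenhouse assay lasting 13 to 15 days. Treatment was into water flooding pots 3 cm deep, at the 2-leaf stage, with that level sustained afterwards. Scores compare treated with control plants visually, 100 denoting complete control and 0 no effect; a dash marks no test result.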
# [6] = tested on: crabgrass, large (large crabgrass, Digitaria sanguinalis); test: Test A pre-/postemergence: crabgrass, large; settings: for Crabgrass, Large plant response rating: Postemergence; for Plant response rating, Crabgrass, Large: Preemergence
# Summary of the method: as §1
# [7] = tested on: foxtail, giant (giant foxtail, Setaria faberii); test: Test A pre-/postemergence: foxtail, giant; settings: for Foxtail, Giant plant response rating: Postemergence; for Plant response rating, Foxtail, Giant: Preemergence
# Summary of the method: as §1
# [8] = tested on: barnyardgrass (Echinochloa crus-galli); test: Test B flooded paddy: barnyardgrass; settings: Flood; 250 g ai/ha; applied to paddy water at 2-leaf stage; visually evaluated after 13 to 15 days
# Summary of the method: as §2
# [9] = tested on: wheat (Triticum aestivum); test: Test A pre-/postemergence: wheat
# Summary of the method: as §1
# rice (Oryza sativa) = test: Test B flooded paddy: rice; settings: Flood; 250 g ai/ha; applied to paddy water at 2-leaf stage; visually evaluated after 13 to 15 days
# Summary of the method: as §2
# [10] = tested on: ducksalad (Heteranthera limosa); test: Test B flooded paddy: ducksalad; settings: Flood; 250 g ai/ha; applied to paddy water at 2-leaf stage; visually evaluated after 13 to 15 days
# Summary of the method: as §2
# [11] = 125 g ai/ha, 0 to 100 scale, 0 is no effect, 100 is complete control
# [12] = 500 g ai/ha, visual rating on 0 to 100 scale (0 no effect, 100 complete control), approximately ten days
# [13] = 125 g ai/ha, 0 to 100 scale (0 no effect, 100 complete control)
# [14] = 500 g ai/ha, 0 to 100 scale, 0 is no effect, 100 is complete control
# [15] = Postemergence, 125 g ai/ha, 0 to 100 scale, 0 is no effect, 100 is complete control
# [16] = Postemergence, 500 g ai/ha, visual rating on 0 to 100 scale (0 no effect, 100 complete control), approximately ten days
# [17] = Preemergence, 125 g ai/ha, 0 to 100 scale (0 no effect, 100 complete control)
# [18] = Preemergence, 500 g ai/ha, 0 to 100 scale, 0 is no effect, 100 is complete control
# [19] = 125 g ai/ha, 0 to 100 scale where 0 is no effect and 100 is complete control
# [20] = 500 g ai/ha, 0 to 100 scale (0 no effect, 100 complete control)
# [21] = Preemergence, 125 g ai/ha, 0 to 100 scale where 0 is no effect and 100 is complete control
# [22] = Preemergence, 500 g ai/ha, 0 to 100 scale (0 no effect, 100 complete control)
smiles,measurement,setting,value
Cc1nn(-c2ccnc(Cl)c2)nc1C(=O)c1cccc(C(F)(F)F)c1 [Compound 4],Barnyardgrass plant response rating,[1]; [11],20
same,Barnyardgrass plant response rating,[1]; [12],30
same,"Plant response rating, Barnyardgrass",[1]; [13],10
same,"Plant response rating, Barnyardgrass",[1]; [14],60
same,Pigweed plant response rating,[2]; [15],80
same,Pigweed plant response rating,[2]; [16],100
same,"Plant response rating, Pigweed",[2]; [17],50
same,"Plant response rating, Pigweed",[2]; [18],100
same,Corn plant response rating,corn (Zea mays); [11],20
same,Corn plant response rating,corn (Zea mays); [12],30
same,"Plant response rating, Corn",corn (Zea mays); [13],0
same,"Plant response rating, Corn",corn (Zea mays); [14],0
same,Morningglory plant response rating,[3]; [15],20
same,Morningglory plant response rating,[3]; [16],40
same,"Plant response rating, Morningglory",[3]; [17],0
same,"Plant response rating, Morningglory",[3]; [18],40
same,Velvetleaf plant response rating,[4]; [15],30
same,Velvetleaf plant response rating,[4]; [16],30
same,"Plant response rating, Velvetleaf",[4]; [17],0
same,"Plant response rating, Velvetleaf",[4]; [18],0
same,"Plant response rating, Sedge, Umbrella (0 to 100 scale, 0 is no effect, 100 is complete control)",[5],70
same,"Crabgrass, Large plant response rating",[6]; [11],30
same,"Crabgrass, Large plant response rating",[6]; [12],70
same,"Plant response rating, Crabgrass, Large",[6]; [13],80
same,"Plant response rating, Crabgrass, Large",[6]; [14],90
same,"Foxtail, Giant plant response rating",[7]; [11],20
same,"Foxtail, Giant plant response rating",[7]; [12],40
same,"Plant response rating, Foxtail, Giant",[7]; [13],80
same,"Plant response rating, Foxtail, Giant",[7]; [14],100
same,"Plant response rating, Barnyardgrass (0 to 100 scale, 0 is no effect, 100 is complete control)",[8],20
same,Wheat plant response rating,[9]; [15],20
same,Wheat plant response rating,[9]; [16],40
same,"Plant response rating, Wheat",[9]; [17],0
same,"Plant response rating, Wheat",[9]; [18],30
same,"Plant response rating, Rice (0 to 100 scale, 0 is no effect, 100 is complete control)",rice (Oryza sativa),0
same,"Plant response rating, Ducksalad (0 to 100 scale, 0 is no effect, 100 is complete control)",[10],40
CCc1nn(-c2ccc(F)cc2)nc1Cc1cccc(C(F)(F)F)c1 [Compound 144],Barnyardgrass plant response rating,[1]; [11],10
same,Barnyardgrass plant response rating,[1]; [12],30
same,"Plant response rating, Barnyardgrass",[1]; [19],0
same,"Plant response rating, Barnyardgrass",[1]; [20],30
same,"Plant response rating, Pigweed",[2]; [15],100
same,Pigweed plant response rating,[2]; [16],100
same,"Plant response rating, Pigweed",[2]; [21],50
same,"Plant response rating, Pigweed",[2]; [22],100
same,Corn plant response rating,corn (Zea mays); [11],10
same,Corn plant response rating,corn (Zea mays); [12],30
same,"Plant response rating, Corn",corn (Zea mays); [19],0
same,"Plant response rating, Corn",corn (Zea mays); [20],0
same,"Plant response rating, Morningglory",[3]; [15],20
same,Morningglory plant response rating,[3]; [16],90
same,"Plant response rating, Morningglory",[3]; [21],0
same,"Plant response rating, Morningglory",[3]; [22],0
same,"Plant response rating, Velvetleaf",[4]; [15],40
same,Velvetleaf plant response rating,[4]; [16],50
same,"Plant response rating, Velvetleaf",[4]; [21],0
same,"Plant response rating, Velvetleaf",[4]; [22],0
same,"Plant response rating, Sedge, Umbrella (0 to 100 scale, 0 is no effect, 100 is complete control)",[5],80
same,"Crabgrass, Large plant response rating",[6]; [11],50
same,"Crabgrass, Large plant response rating",[6]; [12],90
same,"Plant response rating, Crabgrass, Large",[6]; [19],50
same,"Plant response rating, Crabgrass, Large",[6]; [20],100
same,"Foxtail, Giant plant response rating",[7]; [11],30
same,"Foxtail, Giant plant response rating",[7]; [12],90
same,"Plant response rating, Foxtail, Giant",[7]; [19],50
same,"Plant response rating, Foxtail, Giant",[7]; [20],100
same,"Plant response rating, Barnyardgrass (0 to 100 scale, 0 is no effect, 100 is complete control)",[8],30
same,"Plant response rating, Wheat",[9]; [15],0
same,Wheat plant response rating,[9]; [16],20
same,"Plant response rating, Wheat",[9]; [21],0
same,"Plant response rating, Wheat",[9]; [22],0
same,"Plant response rating, Rice (0 to 100 scale, 0 is no effect, 100 is complete control)",rice (Oryza sativa),20
same,"Plant response rating, Ducksalad (0 to 100 scale, 0 is no effect, 100 is complete control)",[10],40
